In patent US6632665B1, “Human gene encoding 3′-5′ exonuclease” (Wake Forest University, priority 1999, dated 2003):
Each block holds one molecule with its values, some of them ahead of it.

Assays:
[1] = tested on: HL-60 cells; assay: araC incorporation into DNA and total DNA synthesis in 6-MP pretreated HL-60 cells; assay type: cell-based
Procedure: (§1) HL-60 cells were incubated with 6-mercaptopurine (6-MP) to allow intracellular levels of thioinosine monophosphate (TIMP) to accumulate. […] Cytoplasmic 6-MP is converted to an active nucleotide metabolite TIMP by the action of hypoxanthine phosphoribosyltransferase (HPRT). […] Intracellular accumulation of TIMP was determined by HPLC [Zimm, et al., Cancer Res. 45:4156-4161 (1985)]. Upon addition of araC, the amount of araC incorporated into DNA increased and total DNA synthesis decreased in cells pretreated with 6-MP relative to untreated cells. At peak intracellular levels of TIMP, araC incorporation into DNA relative to total DNA synthesis was 20-fold greater in the 6-MP treated cells.
(§2) Logarithmically growing cultures of HL-60 cells are incubated with 6-MP for varying times. The cultures are divided into two groups. The first group is treated with 1 μM ^3H-araC for 1 hour to measure araC in DNA. The second group is treated with ^3H-thymidine and 1 μM unlabeled araC for 1 hour to measure total DNA synthesis. Cells are pelleted, washed with PBS, and ^3H-araC or ^3H-thymidine in acid insoluble material is determined by scintillation counting. To measure araCTP in HL-60 cells, 6-MP treated samples are incubated with 1 μM ^3H-araC. Cells are pelleted and washed with PBS. The acid soluble nucleotides are collected and separated by HPLC (Partisil 10 SAX, Whatman). The fraction containing ^3HaraCTP is quantified by scintillation counting.

[2] = tested on: HL-60 cells; assay: cell killing by growth curves and clonogenic assays of treated cells; assay type: cell-based; details: 6-MP pretreatment plus araC
[3] = tested on: HL-60 cells; assay: intracellular accumulation of TIMP by HPLC; assay type: cell-based; details: HL-60 cells pretreated with 50 or 100 μM 6-MP
Procedure: as §1

[4] = tested on: HL-60 cells; assay: intracellular araCTP quantified by HPLC in 6-MP treated cells; assay type: cell-based; details: cells treated with 6-MP up to twelve hours, harvested one hour after addition of araC
Procedure: The increased incorporation of araC into the DNA was not the result of increased accumulation of araC in the 6-MP treated cells. Cells were treated with 6-MP for varying times for up to twelve hours followed by incubation with […]. At time points up to twelve hours, cells were treated with araC and harvested one hour after addition of araC. The nucleotides were then separated using HPLC, and intracellular araCTP was quantified.
as §2

[5] = tested on: murine leukemia cells; details: murine leukemia cells treated for twelve hours with 6-MP; cited from earlier work
[6] = target: T1, 30 kDa exonuclease (Homo sapiens, UniProt Q9NSU2); assay: in vitro enzyme inhibition of the 30 kDa 3'-5' exonuclease; assay type: biochemical; details: 30 kDa exonuclease purified from myeloblastic leukemia cells
T1 construct: endogenous in cells; host or cells: human myeloblastic leukemia cells (myeloblasts)
T1 sequence (Q9NSU2 1-314): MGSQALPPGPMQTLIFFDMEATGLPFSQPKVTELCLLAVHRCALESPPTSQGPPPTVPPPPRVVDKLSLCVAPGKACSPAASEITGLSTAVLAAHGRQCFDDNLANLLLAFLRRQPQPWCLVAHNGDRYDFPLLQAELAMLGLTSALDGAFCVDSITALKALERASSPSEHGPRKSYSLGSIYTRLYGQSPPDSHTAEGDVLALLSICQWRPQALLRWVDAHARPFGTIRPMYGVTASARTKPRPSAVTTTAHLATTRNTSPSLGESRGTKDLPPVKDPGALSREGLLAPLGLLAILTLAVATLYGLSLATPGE
Procedure: In order to assess the effect of intracellular TIMP that contributed to increased araC incorporation, exonuclease activity was partially purified from myeloblastic leukemia cells and in vitro enzyme inhibition studies ware carried out with TIMP. The majority of the cellular exonuclease activity was found in a band migrating on SDS-PAGE with a predicted molecular weight of 30 kDa.
Inhibition studies were also carried out with the purified 30 kD exonuclease and either TIMP or dGMP.
Useful methods in the practice of this example include the following: DNA pol δ may be purified from human myeloblasts using the methods of Syvaoja et al. (Proc. Natl. Acad. Sci., USA 87:6664-6668, 1990) through step 5. The specific activity of the DNA pol δ preparation is preferably about 3,500 units/mg. A unit of DNA pol δ catalyzes the incorporation of 1 nmol of total nucleotide per hour at 37° C. using 100 μM poly(dAdT) as template and reaction conditions as described by Lewis et al. (Biochemistry 33:14620-14624, 1994). […]
To measure the 3′-5′ exonuclease activity, a 23 mer is labeled with ^32P at the 5′ position and used in reactions as ssDNA. […] Samples are dried, resuspended in 5 μl 95% formamide, and analyzed by electrophoresis through 15% polyacrylamide sequencing gels. Radiolabeled bands are visualized and quantified by phosphorimagery (Molecular Dynamics). […]

[7] = tested on: exonuclease activity specifically associated with DNA polymerase δ; details: Lee, et al. Biochemistry 19:215-219 (1980); cited from earlier work
[8] = tested on: 30 kDa enzyme with 3'-5' exonuclease activity; assay: removal of 3' terminal araC from template primer by the 30 kDa exonuclease; assay type: biochemical, human, bovine; details: araC at the 3' terminus of the template primer
Description: For protein purification from bovine thymus, an additional step using phenyl SUPEROSE was employed. In order to detect exonuclease activity in the cell extract, a biochemical assay was developed using DNA polymerase a and an oligonucleotide template primer with an araC analog at the 3′ terminus. In this assay, incorporation of radiolabeled nucleotides into the araC-template primer by the polymerase first requires that the araC analog be removed by a 3′-5′ exonuclease.

[9] = tested on: 32P-labeled 23 nucleotide oligomer; assay: exonuclease activity of protein extracts of transformed BL21/DE3 cells; assay type: biochemical; details: protein extract of BL21/DE3 cells, IPTG induced
Procedure: To measure the 3′-5′ exonuclease activity, a 23 mer is labeled with ^32P at the 5′ position and used in reactions as ssDNA. Reaction mixtures (10 μl) are prepared containing 20 mM Tris-HCl, pH 7.5, 10 mM MgCl2, 2 mM DTT, 100 μg/mL BSA, 100 nM 23 mer, and 1 μl of the appropriate enzyme dilution. Incubation is 20 minutes at 37° C., and reactions are stopped by addition of 30 μl 95% ethanol. Samples are dried, resuspended in 5 μl 95% formamide, and analyzed by electrophoresis through 15% polyacrylamide sequencing gels. Radiolabeled bands are visualized and quantified by phosphorimagery (Molecular Dynamics). One unit of exonuclease is the amount of enzyme needed to degrade 1 pmol of 3′ termini in 1 min at 37° C.
The pTREX1h/T7 plasmid was electroporated into BL21/DE3 cells, which were grown at 23° C. to a density of OD595 0.3. Isopropylthiogalactopyranoside (IPTG) was added to induce overexpression and incubation of the cells was continued overnight. Protein extracts were prepared from the cells and enzyme activity assayed using a ^32P-labeled 23 nucleotide oligomer.
Template DNA was the mouse EST 480859. PCR was carried out as described for TREX1h and the resulting amplification product was subcloned as for TREX1h. The resulting expression plasmid was designated pTREX2m/T7 and expression of the encoded gene was carried out as described for TREX1h. […]

[10] = HL-60 cells pretreated with 6-MP relative to untreated cells, upon addition of araC

time of peak intracellular TIMP concentration [3]: approximately twelve
variation of intracellular araCTP levels during the time course [4]: less than two-fold
Molecule: Sc1ncnc2nc[nH]c12 [6-MP, 6-mercaptopurine]
amount of araC incorporated into DNA [1, 10]: increased
total DNA synthesis [1, 10]: decreased
araC incorporation into DNA relative to total DNA synthesis, 6-MP treated vs untreated cells ([1]; HL-60 cells pretreated with 6-MP, at peak intracellular levels of TIMP, then araC): 20 fold
cell killing [2]: increase in cell killing
intracellular level of TIMP [5]: approximately 180 μM

Ki [6]: 17 µM
Molecule: O=P(O)(O)OC[C@H]1O[C@@H](n2cnc3c(S)ncnc32)[C@H](O)[C@@H]1O [TIMP, thioinosine monophosphate]
inhibition of DNA polymerase δ associated exonuclease activity [7]: inhibit exonuclease activity

Ki [6]: 56 µM
Molecule: Nc1nc2c(ncn2[C@H]2C[C@H](O)[C@@H](COP(=O)(O)O)O2)c(=O)[nH]1 [dGMP]

Molecule: Nc1ccn([C@@H]2O[C@H](CO)[C@@H](O)[C@@H]2O)c(=O)n1 [araC, 1-β-D-arabinofuranosylcytosine]
apparent rate of araC removal by the exonuclease [8]: approximately the same rate as the rate of deoxynucleotide monophosphate removal

B1: TREX2m: murine 3'-5' exonuclease polypeptide, SEQ ID NO:32, expressed from pTREX2m/T7 (protein, listed as Mus musculus)
chain: MSEPPRAETFVFLDLEATGLPNMDPEIAEISLFAVHRSSLENPERDDSGSLVLPRVLDKLTLCMCPERPFTAKASEITGLSSESLMHCGKAGFNGAVVRTLQGFLSRQEGPICLVAHNGFDYDFPLLCTELQRLGAHLPQDTVCLDTLPALRGLDRAHSHGTRAQGRKSYSLASLFHRYFQAEPSAAHSAEGDVHTLLLIFLHRAPELLAWADEQARSWAHIEPMYVPPDGPSLEA
exonuclease activity versus control cells with parental vector only [9]: 30 fold

B2: TREX1h: human 3'-5' exonuclease polypeptide, SEQ ID NO:2, expressed from pTREX1h/T7 (protein)
chain: MGSQALPPGPMQTLIFFDMEATGLPFSQPKVTELCLLAVHRCALESPPTSQGPPPTVPPPPRVVDKLSLCVAPGKACSPAASEITGLSTAVLAAHGRQCFDDNLANLLLAFLRRQPQPWCLVAHNGDRYDFPLLQAELAMLGLTSALDGAFCVDSITALKALERASSPSEHGPRKSYSLGSIYTRLYGQSPPDSHTAEGDVLALLSICQWRPQALLRWVDAHARPFGTIRPMYGVTASARTKPRPSAVTTTAHLATTRNTSPSLGESRGTKDLPPVKDPGALSREGLLAPLGLLAILTLAVATLYGLSLATPGE
modifications: HOMO SAPIENS
exonuclease activity versus control cells with parental vector only [9]: 30 fold
